Experimental data from patent publication US20240158446A1, “CYCLIC COMPOUND HAVING SELECTIVE INHIBITORY ACTION ON KRAS OVER HRAS AND NRAS” (CHUGAI SEIYAKU KABUSHIKI KAISHA, priority 2021, published 2024).

Tests used:
[1] = biological target: GDP-bound KRAS wild-type protein (Homo sapiens, UniProt P01116); experiment: Binding to KRAS by surface plasmon resonance (SPR), Single Cycle Kinetics; conditions: SPR Single Cycle Kinetics, GDP-bound KRAS wild-type protein, 1:1 binding model; read-out: KRAS KD
[2] = biological target: GDP-bound NRAS wild-type protein (Homo sapiens, UniProt P01111); experiment: Binding to NRAS by surface plasmon resonance (SPR), Single Cycle Kinetics; conditions: SPR KD ratio NRAS/KRAS, class symbols
[3] = biological target: GDP-bound HRAS wild-type protein (Homo sapiens, UniProt P01112); experiment: Binding to HRAS by surface plasmon resonance (SPR), Single Cycle Kinetics; conditions: SPR KD ratio HRAS/KRAS, class symbols
[4] = system: human lung cancer strain NCI-H441;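 further: cell proliferation inhibition after four days measured by CellTiter-Glo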

Sequence of GDP-bound KRAS wild-type protein (P01116 whole entry): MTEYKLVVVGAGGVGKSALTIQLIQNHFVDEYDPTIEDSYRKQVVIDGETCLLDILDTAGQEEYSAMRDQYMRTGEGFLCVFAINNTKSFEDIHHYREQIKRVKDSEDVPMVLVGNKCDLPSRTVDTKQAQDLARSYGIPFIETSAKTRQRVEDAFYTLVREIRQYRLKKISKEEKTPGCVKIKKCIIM
Sequence of GDP-bound NRAS wild-type protein (P01111 whole entry): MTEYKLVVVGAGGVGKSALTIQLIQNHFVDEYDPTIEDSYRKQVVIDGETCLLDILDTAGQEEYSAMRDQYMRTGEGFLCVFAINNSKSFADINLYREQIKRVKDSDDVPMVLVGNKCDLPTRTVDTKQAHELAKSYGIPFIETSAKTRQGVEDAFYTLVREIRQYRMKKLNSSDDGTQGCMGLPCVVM
Sequence of GDP-bound HRAS wild-type protein (P01112 whole entry): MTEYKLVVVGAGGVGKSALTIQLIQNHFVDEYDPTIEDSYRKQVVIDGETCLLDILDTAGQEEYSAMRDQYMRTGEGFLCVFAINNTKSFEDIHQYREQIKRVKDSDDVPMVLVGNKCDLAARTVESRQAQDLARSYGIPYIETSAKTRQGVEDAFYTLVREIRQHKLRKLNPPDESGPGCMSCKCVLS

Row | SMILES | Kd [1] | IC50 [4] | NRAS/KRAS (ratio of KD value with respect to GDP-bound NRAS wild-type protein to KD value with respect to KRAS) [2] | HRAS/KRAS (ratio of KD value with respect to GDP-bound HRAS wild-type protein to KD value with respect to KRAS) [3]
1 | CCC[C@H]1C(=O)N[C@@H]([C@@H](C)CC)C(=O)N(C)CC(=O)N(C)[C@H]2C/C=C\CCN(C2=O)[C@@H](Cc2ccc(C)cc2)C(=O)N(C)CC(=O)N[C@@H](CCc2ccc(Cl)c(Cl)c2)C(=O)N2C[C@H](OC(C)C)C[C@H]2C(=O)NC2(CC(C)(C)C2)C(=O)N(C)[C@@H](C(CC)CC)C(=O)N(C)[C@H](C(=O)N(C)C)CC(=O)N1C [PP2537] | 0.74 nM | 75.1 nM | AA (a compound having 20 or more is denoted as AA) | A (a compound having 10 or more and less than 20 is denoted as A)
2 | CCC[C@H]1C(=O)N[C@@H](CC(C)C)C(=O)N(CC)CC(=O)N(C)[C@H]2C/C=C\CCN(C2=O)[C@@H](Cc2ccc(C)cc2)C(=O)N(C)CC(=O)N[C@@H](CCc2cc(F)c(C(F)(F)F)c(F)c2)C(=O)N2C[C@H](OCC)C[C@H]2C(=O)NC2(CCC2)C(=O)N(C)[C@@H](C2CCCC2)C(=O)N(C)[C@H](C(=O)N(C)C)CC(=O)N1C [PP2539] | 4.3 nM | 330 nM | A (a compound having 10 or more and less than 20 is denoted as A) | B (a compound having 3 or more and less than 10 is denoted as B)
3 | CCC[C@H]1C(=O)N[C@@H](CC(C)C)C(=O)N(CC)CC(=O)N(C)[C@H]2C/C=C\CCN(C2=O)[C@@H](Cc2ccc(C)cc2)C(=O)N(C)CC(=O)N[C@@H](CCc2ccc(C(F)(F)F)c(OC)c2)C(=O)N2C[C@H](OCC)C[C@H]2C(=O)NC2(CCC2)C(=O)N(C)[C@@H](C2CCCC2)C(=O)N(C)[C@H](C(=O)N(C)C)CC(=O)N1C [PP2540] | 4.6 nM | 562 nM | A (a compound having 10 or more and less than 20 is denoted as A) | B (a compound having 3 or more and less than 10 is denoted as B)
4 | CCC[C@H]1C(=O)N[C@@H](CC(C)C)C(=O)N(CCOC)CC(=O)N(C)[C@H]2C/C=C\CCN(C2=O)[C@@H](Cc2ccc(C)cc2)C(=O)N(C)CC(=O)N[C@@H](CCc2cc(F)c(C(F)(F)F)c(F)c2)C(=O)N2C[C@H](OCC)C[C@H]2C(=O)NC2(CCC2)C(=O)N(C)[C@@H](C2CCCC2)C(=O)N(C)[C@H](C(=O)N(C)C)CC(=O)N1C [PP2541] | 4.9 nM | 374 nM | A (a compound having 10 or more and less than 20 is denoted as A) | B (a compound having 3 or more and less than 10 is denoted as B)
5 | CCC[C@H]1C(=O)N[C@@H](CC(C)C)C(=O)N(CCOC)CC(=O)N(C)[C@H]2C/C=C\CCN(C2=O)[C@@H](Cc2ccc(C)cc2)C(=O)N(C)CC(=O)N[C@@H](CCc2ccc(C(F)(F)F)c(OC)c2)C(=O)N2C[C@H](OCC)C[C@H]2C(=O)NC2(CCC2)C(=O)N(C)[C@@H](C2CCCC2)C(=O)N(C)[C@H](C(=O)N(C)C)CC(=O)N1C [PP2542] | 4.6 nM | 394 nM | B (a compound having 3 or more and less than 10 is denoted as B) | B (a compound having 3 or more and less than 10 is denoted as B)

Continued, in another order:

Row | Kd [1] | IC50 [4] | SMILES | NRAS/KRAS (ratio of KD value with respect to GDP-bound NRAS wild-type protein to KD value with respect to KRAS) [2] | HRAS/KRAS (ratio of KD value with respect to GDP-bound HRAS wild-type protein to KD value with respect to KRAS) [3]
6 | 4.3 nM | 279 nM | CCC[C@H]1C(=O)N[C@@H](CC(C)C)C(=O)N(CC)CC(=O)N(C)[C@H]2C/C=C\CCN(C2=O)[C@@H](Cc2ccc(C)cc2)C(=O)N(C)CC(=O)N[C@@H](CCc2ccc(C(F)(F)F)c(Cl)c2)C(=O)N2C[C@H](OCC)C[C@H]2C(=O)NC2(CCC2)C(=O)N(C)[C@@H](C2CCCC2)C(=O)N(C)[C@H](C(=O)N(C)C)CC(=O)N1C [PP2545] | A (a compound having 10 or more and less than 20 is denoted as A) | A (a compound having 10 or more and less than 20 is denoted as A)
7 | 4.7 nM | 295 nM | CCC[C@H]1C(=O)N[C@@H](CC(C)C)C(=O)N(CCOC)CC(=O)N(C)[C@H]2C/C=C\CCN(C2=O)[C@@H](Cc2ccc(C)cc2)C(=O)N(C)CC(=O)N[C@@H](CCc2ccc(C(F)(F)F)c(Cl)c2)C(=O)N2C[C@H](OCC)C[C@H]2C(=O)NC2(CCC2)C(=O)N(C)[C@@H](C2CCCC2)C(=O)N(C)[C@H](C(=O)N(C)C)CC(=O)N1C [PP2546] | B (a compound having 3 or more and less than 10 is denoted as B) | B (a compound having 3 or more and less than 10 is denoted as B)
8 | 4.4 nM | 1060 nM | CCC[C@H]1C(=O)N[C@@H](CC(C)C)C(=O)N2C[C@@H](OC)C[C@H]2C(=O)N(C)[C@H]2C/C=C\CCN(C2=O)[C@@H](Cc2ccc(C)cc2)C(=O)N(C)CC(=O)N[C@@H](CCc2cc(F)c(C(F)(F)F)c(F)c2)C(=O)N2C[C@H](OCC)C[C@H]2C(=O)NC2(CCC2)C(=O)N(C)[C@@H](C2CCCC2)C(=O)N(C)[C@H](C(=O)N(C)C)CC(=O)N1C [PP2547] | A (a compound having 10 or more and less than 20 is denoted as A) | B (a compound having 3 or more and less than 10 is denoted as B)
9 | 7.8 nM | 1050 nM | CCC[C@H]1C(=O)N[C@@H](CC(C)C)C(=O)N2C[C@@H](OC)C[C@H]2C(=O)N(C)[C@H]2C/C=C\CCN(C2=O)[C@@H](Cc2ccc(C)cc2)C(=O)N(C)CC(=O)N[C@@H](CCc2ccc(C(F)(F)F)c(OC)c2)C(=O)N2C[C@H](OCC)C[C@H]2C(=O)NC2(CCC2)C(=O)N(C)[C@@H](C2CCCC2)C(=O)N(C)[C@H](C(=O)N(C)C)CC(=O)N1C [PP2548] | A (a compound having 10 or more and less than 20 is denoted as A) | B (a compound having 3 or more and less than 10 is denoted as B)
10 | 6 nM | 506 nM | CCC[C@H]1C(=O)N[C@@H](CC(C)C)C(=O)N2C[C@@H](OC)C[C@H]2C(=O)N(C)[C@H]2C/C=C\CCN(C2=O)[C@@H](Cc2ccc(C)cc2)C(=O)N(C)CC(=O)N[C@@H](CCc2ccc(C(F)(F)F)c(Cl)c2)C(=O)N2C[C@H](OCC)C[C@H]2C(=O)NC2(CCC2)C(=O)N(C)[C@@H](C2CCCC2)C(=O)N(C)[C@H](C(=O)N(C)C)CC(=O)N1C [PP2549] | A (a compound having 10 or more and less than 20 is denoted as A) | B (a compound having 3 or more and less than 10 is denoted as B)
11 | 0.29 nM | 38.5 nM | CCC[C@H]1C(=O)N[C@@H]([C@@H](C)CC)C(=O)N2C[C@@H](OC)C[C@H]2C(=O)N(C)[C@H]2C/C=C\CCN(C2=O)[C@@H](Cc2ccc(C)cc2)C(=O)N(C)CC(=O)N[C@@H](CCc2cc(F)c(C(F)(F)F)c(F)c2)C(=O)N2C[C@H](OCC)C[C@H]2C(=O)NC2(CCC2)C(=O)N(C)[C@@H](C2CCCC2)C(=O)N(C)[C@H](C(=O)N(C)C)CC(=O)N1C [PP2550] | A (a compound having 10 or more and less than 20 is denoted as A) | B (a compound having 3 or more and less than 10 is denoted as B)
